Experiments:
Eμ-TCL1 transgenic mice = assay: CLL in Eμ-TCL1 transgenic mice treated with COG112; format: in vivo, mouse
Text: In the Eμ-TCL1 transgenic mouse model, the TCL1 gene is placed under control of a B-cell-specific IgVH promoter and IgH-Eμ enhancer. These mice develop normally into adulthood but later develop enlarged spleens, livers, and lymph nodes that are accompanied by high blood lymphocyte counts. The mice eventually die prematurely as the leukemic cells accumulate along with development of advanced lymphoadenopathy Importantly, the accumulated B-cells in these transgeneic TCL1 mice are G0-1 arrested and express CD19+/CD5+/IgM+ just as the human CLL cells (Bichi et al. (2002) Proc Natl Acad Sci USA, Vol. 99: 6955-6960). As further validation of these Eμ-TCL1 transgenic mice as an effective model of human CLL, CLL symptoms in the TCL1 transgenic mice improve following administration of fludarabine, a clinically used anti-CLL therapeutic. […] The effect of COG112 on CLL cell production and life expectancy in the Eμ-TCL1 transgenic mouse model of CLL is evaluated.
Animals (n=6) are treated with either 10 mg/kg of COG112 or a vehicle control daily by subcutaneous injection. After 15 days of treatment, blood is collected by retro-orbital bleeds and white bloods cells quantitated. White-blood cell counts are expected to be reduced in COG112-treated animals relative to the vehicle controls.
At the initiation of treatment, blood is drawn to determine baseline CD5+/CD19+ CLL cell counts and groups of animals (n=20) are treated with a vehicle control (lactated Ringer's solution) or COG112 at doses of 4.0, 1.0, or 0.25 mg/kg. COG112 or the vehicle control is delivered by intraperitoneal injection at a volume of 10 mL/kg. Animals receive injections daily Monday through Friday so that 5 doses are administered per week for 5 weeks (35 days of total treatment). Disease course is monitored by survival, total blood leukocyte and lymphocyte count, and CD19+/CD5+ cell count weekly.
Blood is collected from each mouse on a weekly basis by retro-orbital bleeds for determination of total blood leukocyte and lymphocyte counts as well as CD19+/CD5+ cell counts to assess the leukemia burden. After 5 weeks (35 days of treatment), mice are euthanized and the post treatment leukemia burden is measured by cell counting, spleen weight, and histological analysis of bone marrow, spleen, liver, and lymph nodes.

[1] = tested on: BCR/Abl+ K562 CML cell line; assay: Growth of BCR/Abl+ K562 CML cells (trypan blue counting); format: cell-based
Method: Cells (20 mL) were seeded in a T-75 flask at a concentration of 0.25×10^6 cells/mL. Each day after seeding, 0.20 mL of cell suspension was removed and centrifuged to collect cells. The cell pellet was resuspended in 500 μL of serum free media and 100 μL of trypan blue stain was added and incubated for 5 minutes before counting the […] cells with a hemacytometer.

[2] = Cytotoxicity on PBMC from normal volunteers; format: cell-based; conditions: human, FIG. 4
B-CLL cells [3] = assay: Annexin V / propidium iodide apoptosis assay on B-CLL cells; format: cell-based, human
Method: In a first series of experiments, apoptosis assays using Annexin V staining were performed on freshly isolated B-CLL cells to determine if COG112 could reverse the anti-apoptotic state in these cells and induce apoptosis. […] Apoptosis was measured using the Annexin V-FITC apoptosis detection kit (BD Biosciences-Pharmingen). COG-treated and untreated cells were Annexin V-FITC- and propidium iodide-stained for 15 minutes in 1× binding buffer (10 mM HEPES, pH 7.4, 140 mM NaCl, 2.5 mM CaCl2) and analyzed by flow cytometry. One aliquot of cells was treated with 100 μg/mL etoposide as a positive control for apoptosis induction.

BCR/ABL fusion protein = assay: Phospho-BCR/ABL Western blot in K562 cells; format: cell-based; conditions: COG112 0.5 or 1 μM, 24 hours, FIG. 8A
Method: As discussed above, constitutive activation of the BCR/ABL fusion protein produced by the Philadelphia chromosome (e.g. product of the t(9;22)(q34;q11) translocation) is the primary causative factor in the persistent signaling that leads to unrestrained cell proliferation and survival in CML. […] Cell lysates were prepared and subject to Western blot analysis to detect activated phospho-BCR/ABL.

Akt kinase = assay: LPS-induced phosphorylation of Akt kinase in BV2 microglial cells (Western blot densitometry); format: cell-based, mouse; conditions: 10 ng/mL LPS, 1 μM COG112, normalized to actin, FIG. 2C
Method: To determine if COG peptides could also suppress activation of the upstream Akt kinase, BV2 microglial cells were treated with 10 ng/mL LPS alone or in the presence of 1 μM COG112 (SEQ ID NO: 2) peptide. Cell lysates were run on 10% polyacrylamide gels and subsequently transferred to nitrocellulose membranes. Blots were probed with an anti-phospho-Akt antibody or an antibody to actin. Densitometry analysis of the western blots was conducted and the signals from phosphorylated Akt kinase were normalized to those from actin.

B-CLL cells [4] = assay: Cytotoxicity on B-CLL cells from CLL patients (MTS assay)
Method: To determine whether COG peptides could counteract the overactivation of the Akt/NFkB pathway in B-CLL cells and effectively induce apoptosis, cytotoxicity testing was performed on freshly isolated B-CLL cells from CLL patients with COG peptides. Blood from CLL patients was collected and CD5+/CD19+ CLL cells were isolated using the RosetteSep™ Human B Cell Enrichment Cocktail. This method depletes whole blood of T cells, monocytes, and NK cells using a proprietary antibody cocktail containing anti-CD14, anti-CD2 and anti-CD16 antibodies to remove T cells, monocytes, and NK cells, respectively. The antibody cocktail crosslinks unwanted cells in human whole blood to multiple red blood cells forming immunorosettes thereby increasing the density of the rosetted cells, such that they pellet along with the free RBCs when centrifuged over a buoyant density medium such as Ficoll-Paque®. The highly enriched B-cell or B-CLL cells are left at the interface between Ficoll and the plasma.
COG peptides were applied to the isolated B-CLL cells (0.25×10^6 cells/well in a 96 well plate) for 72 hours, after which viable cells were assessed using the MTS assay ([…]).
Additional B-CLL cells and peripheral blood mononuclear cells (PBMC; i.e., normal B cells) were isolated from leukemia patients and normal volunteers, respectively, and were treated with a range of COG112 concentrations.

[5] = 4.0, 1.0 or 0.25 mg/kg intraperitoneal, 5 weeks, versus vehicle

## Ac-RQIKIWFQNRRMKWKKCLRVRLASHLRKLRKRLL-NH2 (N-terminus and C-terminus assumed) [COG112]
Eμ-TCL1 transgenic mice; 10 mg/kg daily subcutaneous, 15 days, relative to vehicle
  white-blood cell counts: reduced
Eμ-TCL1 transgenic mice; [5]
  CD19+/CD5+ cell counts: dose-dependent reduction
  CLL burden by histological analysis: dose-dependent reduction
  cumulative survival: dose-dependent increase
  spleen weight: dose-dependent reduction
[1]; 1 μM COG112, 75 nM Imatinib, alone or combined, FIG. 7B
  K562 cell growth at reduced concentrations: suboptimal inhibition
[1]; dose response of COG112, Imatinib 1 μM positive control, FIG. 7A
  K562 cell growth: dose dependent inhibition
[2]
  EC50: ~20 µM
B-CLL cells [3]; B-CLL cells, Annexin V
  ED50 for induction of apoptosis: closely mirrored the ED50 for cytotoxicity
B-CLL cells [3]; increasing concentrations of COG112, flow cytometry, FIG. 5
  apoptosis (Annexin-V+/propidium iodide+ cells): dose-dependent increase in apoptosis
BCR/ABL fusion protein
  level of phosphorylated BCR/ABL: dose-dependent reduction
Akt kinase
  LPS-induced phosphorylation of the Akt kinase: significantly decreased
B-CLL cells [4]; EC50 relative to COG056 control
  Fold Change: 58.6
B-CLL cells [4]; human, 72 hours
  EC50: 0.22 ± 0.13 µM

— patent US20110166079A1, “METHODS OF TREATING CANCER WITH APOE PEPTIDES” (COGNOSCI, INC., priority 2008, published 2011)
